{"source": "patent US4698356A", "about": "“Anti-hypertensive agents” (University of Miami, priority 1979, dated 1987)", "molecular_target": "T1, human urinary ACE (angiotensin converting enzyme) (Homo sapiens, UniProt P12821)", "T1 construct": "The enzyme preparation was ACE purified from human urine; from tissue; host or cells: human urine (enzyme purified as described by Ryan, J.W., et al., Tissue and Cell 10, 555 (1978))", "T1 sequence (P12821 30-1232 limits assumed)": "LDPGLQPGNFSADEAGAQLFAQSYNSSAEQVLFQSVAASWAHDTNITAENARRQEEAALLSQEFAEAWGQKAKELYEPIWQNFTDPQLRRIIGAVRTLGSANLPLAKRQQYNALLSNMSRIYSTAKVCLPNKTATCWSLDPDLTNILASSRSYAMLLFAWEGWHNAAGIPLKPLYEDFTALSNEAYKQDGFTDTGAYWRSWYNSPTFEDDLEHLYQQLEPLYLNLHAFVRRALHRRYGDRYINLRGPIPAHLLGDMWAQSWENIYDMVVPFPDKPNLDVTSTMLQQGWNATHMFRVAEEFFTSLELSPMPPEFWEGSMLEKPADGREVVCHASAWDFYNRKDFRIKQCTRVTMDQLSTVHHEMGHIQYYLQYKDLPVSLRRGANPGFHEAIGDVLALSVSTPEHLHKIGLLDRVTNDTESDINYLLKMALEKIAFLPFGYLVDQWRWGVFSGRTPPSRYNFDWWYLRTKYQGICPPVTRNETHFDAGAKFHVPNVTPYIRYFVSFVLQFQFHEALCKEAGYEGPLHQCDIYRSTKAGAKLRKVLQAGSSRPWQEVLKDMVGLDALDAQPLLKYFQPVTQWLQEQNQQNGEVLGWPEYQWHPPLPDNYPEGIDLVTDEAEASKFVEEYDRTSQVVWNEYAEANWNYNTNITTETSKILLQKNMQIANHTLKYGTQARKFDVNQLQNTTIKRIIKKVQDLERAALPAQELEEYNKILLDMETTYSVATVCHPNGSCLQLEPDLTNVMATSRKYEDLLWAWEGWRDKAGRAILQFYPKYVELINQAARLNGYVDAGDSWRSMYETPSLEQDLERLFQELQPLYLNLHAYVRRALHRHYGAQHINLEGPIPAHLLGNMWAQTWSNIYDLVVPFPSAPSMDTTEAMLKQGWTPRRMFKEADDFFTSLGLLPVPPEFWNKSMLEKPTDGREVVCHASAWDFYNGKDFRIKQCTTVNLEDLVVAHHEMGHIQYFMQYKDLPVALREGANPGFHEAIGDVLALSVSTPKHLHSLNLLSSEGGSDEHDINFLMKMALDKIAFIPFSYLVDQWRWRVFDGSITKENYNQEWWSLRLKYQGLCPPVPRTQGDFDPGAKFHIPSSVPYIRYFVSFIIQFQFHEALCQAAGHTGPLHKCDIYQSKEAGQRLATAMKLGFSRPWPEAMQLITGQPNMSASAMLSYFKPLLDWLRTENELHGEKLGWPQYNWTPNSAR", "assay": "ACE activity assay (inhibition of hydrolysis of [3H]-Benzoyl-GlyHisLeu)", "type": "biochemical", "settings": "read-out: I50", "experimental": "These factors include the source of enzyme, its purity, the substrate used and its concentration, and the composition of the assay buffer.\nACE activity assay. […] To initiate the assay, 40 μl of enzyme and 10 μl of water or inhibitor dissolved in water were preincubated for five minutes at 37° C. […] To terminate the reaction, 1 ml of 0.1M HCl was added, following which 1 ml of ethyl acetate was added. The mixture was agitated on a rotary mixer and centrifuged briefly to separate the phases.\nAn aliquot, 500 μl, of the ethyl acetate layer was transferred to a liquid scintillation vial containing 10 ml of Riafluor, trademark New England Nuclear Corporation, Boston, Mass. For determination of I50 values, enzyme activity in the presence of inhibitor at a series of different concentrations was compared to activity in the absence of inhibitor.", "data": [{"smiles": "C[C@H](CSC(=O)[C@@H](N)Cc1ccccc1)C(=O)N1CCC[C@H]1C(=O)O", "note": "[Example 14, N^α -(3-L-phenylalanylthio-2-D-methylpropanoyl)-L-proline]", "values": [{"measurement": "IC50", "value": 8.8, "unit": "nM"}]}]}
